Source: patent US8399462B2, “JNK modulators” (Roche Palo Alto LLC, priority 2006, dated 2013)

| SMILES | melting point |
| --- | --- |
| COc1cccc2c1cnn2-c1ccnc(NC2CCC(NC(C)=O)CC2)n1 (stereo not drawn) [Compound 91, N-{4-[4-(4-methoxy-indazol-1-yl]-pyrimidin-2-ylamino}-cyclohexane}-acetamide] | 256.9 to 259.9 °C |
| CN(c1cccc2c1ccn2-c1ccnc(N[C@H]2CC[C@H](O)CC2)n1)S(C)(=O)=O [Compound 92, N-{1-[2-(4-hydroxy-cyclohexylamino)-pyrimidin-4-yl]-1H-indol-4-yl}-N-methyl-methanesulfonamide] | 235.8 to 236.2 °C |
| OCC(O)COc1ccc2cnn(-c3ccnc(N[C@H]4CC[C@H](O)CC4)n3)c2c1 (stereo partly drawn) [Compound 93, 3-{1-[2-(4-hydroxy-cyclohexylamino)-pyrimidin-4-yl]-1H-indazol-6-yloxy}-propane-1,2-diol] | 223.8 to 224.7 °C |
| O=C(COc1cccc2c1cnn2-c1ccnc(N[C@H]2CC[C@H](O)CC2)n1)N[C@H]1CC[C@H](O)CC1 [Compound 95, N-(4-hydroxy-cyclo-hexyl)-2-{1-[2-(4-hydroxy-cyclohexyl-amino)-pyrimidin-4-yl]-1H-indazol-4-yloxy}-acetamide] | 220 to 222.3 °C |
| CS(=O)(=O)Nc1cccc2c1ccn2-c1ccnc(N[C@H]2CC[C@H](O)CC2)n1 [Compound 97, N-{1-[2-(4-hydroxy-cyclohexylamino)-pyrimidin-4-yl]-1H-indol-4-yl}-N-methane-sulfonamide] | 240.2 to 240.8 °C |
| COCc1cccc2c1ccn2-c1ccnc(N[C@H]2CC[C@H](O)CC2)n1 [Compound 102, 4-[4-(4-methoxymethyl-indol-1-yl)-pyrimidin-2-ylamino]-cyclohexanol] | 134.8 to 137.3 °C |
| O[C@H]1CC[C@H](Nc2nccc(-n3ncc4c(OCc5ccccn5)cccc43)n2)CC1 [Compound 103, 4-{4-[4-(pyridine-2-yl-methoxy)-indazol-1-yl]-pyrimidin-2-ylamino}-cyclohexanol] | 202.5 to 203.6 °C |
| COc1cccc2c1cnn2-c1ccnc(N[C@H]2CC[C@H](C(=O)N(C)C)CC2)n1 [Compound 105, 4-[4-(4-methoxyindazol-1-yl)-pyrimidin-2-ylamino]-cyclo-hexanecarboxylic acid dimethylamide] | 278.8 to 280 °C |
| CCS(=O)(=O)Cc1cccc2c1ccn2-c1ccnc(N[C@H]2CC[C@H](O)CC2)n1 [Compound 108, 4-[4-(4-ethanesulfonyl-methyl-indol-1-yl)-pyrimidin-2-ylamino]-cyclohexanol] | 193.3 to 194.6 °C |
| CC(=O)N[C@H]1CC[C@H](Nc2nccc(-n3ccc4c(C(C)(C)O)cccc43)n2)CC1 [Compound 109, N-(4-{4-[4-(1-hydroxy-1-methylethyl)-indol-1-yl]-pyrimidin-2-yl-amino}-cyclohexyl)-acetamide] | 172 to 173.6 °C |
| CNC(=O)COc1cccc2c1cnn2-c1ccnc(N[C@H]2CC[C@H](O)CC2)n1 [Compound 112, 2-{1-[2-(4-hydroxy-cyclohexylamino)-pyrimidin-4-yl]-1H-indazol-4-yloxy}-N-methyl-acetamide] | 226 to 227 °C |
| N#CCc1cccc2c1ccn2-c1ccnc(N[C@H]2CC[C@H](C(=O)N3CCCC3)CC2)n1 [Compound 114, (1-{2-[4-(pyrrolidino-1-carbonyl)-cyclohexyl-amino]-pyrimidin-4-yl}-1H-indol-4-yl)-acetonitrile] | 136 to 137.5 °C |
| CC(C)(O)c1cccc2c1ccn2-c1ccnc(N[C@H]2CC[C@H](NS(C)(=O)=O)CC2)n1 [Compound 117, N-(4-{4-[4-(1-hydroxy-1-methylethyl)-indol-1-yl]-pyrimidin-2-yl-amino}-cyclohexyl)-methanesulfonamide] | 247 to 249.6 °C |
| CS(=O)(=O)N[C@H]1CC[C@H](Nc2ncc(Cl)c(-n3ccc4ccccc43)n2)CC1 [Compound 118, N-[4-(5-chloro-4-indol-1-ylpyrimidin-2-yl-amino)-cyclohexyl]-methanesulfonamide] | 203.8 to 204.9 °C |
| CC(=O)N[C@H]1CC[C@H](Nc2ncc(Cl)c(-n3ccc4ccccc43)n2)CC1 [Compound 119, N-[4-(5-chloro-4-indol-1-ylpyrimidin-2-yl-amino)-cyclohexyl]-acetamide] | 263.2 to 263.8 °C |
| O=C([C@H]1CC[C@H](Nc2ncc(Cl)c(-n3ccc4ccccc43)n2)CC1)N1CCCC1 [Compound 120, [4-(5-chloro-4-indol-1-ylpyrimidin-2-ylamino)-cyclohexyl]-pyrrolidin-1-ylmethanone] | 182 to 182.5 °C |
| CC(C)(O)[C@H]1CC[C@H](Nc2nccc(-n3ccc4c(CC#N)cccc43)n2)CC1 [Compound 123, (1-{2-[4-(1-hydroxy-1-methylethyl)-cyclo-hexylamino]-pyrimidin-4-yl}-1H-indol-4-yl)-acetonitrile] | 188 to 191.7 °C |
| CNC(=O)COc1cccc2c1cnn2-c1ccnc(N[C@H]2CC[C@H](C(=O)N(C)C)CC2)n1 [Compound 124, 4-[4-(4-methylcarba-moylmethoxy-indazol-1-yl)-pyrimidin-2-yl-amino]-cyclohexane-carboxylic acid dimethylamide] | 183 to 185 °C |
| CS(=O)(=O)N[C@H]1CC[C@H](Nc2nccc(-n3ccc4c(F)cccc43)n2)CC1 [Compound 134, N-{4-[4-(4-fluoro-indol-1-yl)-pyrimidin-2-ylamino]-cyclohexyl}-methane sulfonamide] | 248.7 to 249.4 °C |
| CC(O)c1cccc2c1ccn2-c1ccnc(N[C@H]2CC[C@H](NS(C)(=O)=O)CC2)n1 (stereo partly drawn) [Compound 135, N-(4-{4-[4-(1-hydroxy-ethyl)-indol-1-yl]-pyrimidin-2-ylamino}-cyclohexyl)-methane-sulfonamide] | 244.5 to 245.3 °C |
| CN(C)S(=O)(=O)N[C@H]1CC[C@H](Nc2nccc(-n3ncc4ccccc43)n2)CC1 [Compound 136, Dimethyl sulfonamide [4-(4-indazol-1-yl)-pyrimidin-2-ylamino]-cyclohexyl amine] | 238.5 to 239.7 °C |

Results, then the compound that gave them:

| melting point | SMILES |
| --- | --- |
| 172 to 173.9 °C | O[C@H]1CC[C@H](Nc2nccc(-c3noc4ccc(F)cc34)n2)CC1 [Compound 83, 4-[4-(5-fluorobenzo[d]-isoxazol-3-yl)-pyrimidin-2-ylamino]-cyclohexanol] |
| 216.5 to 218.5 °C | OCCOc1ccc2cnn(-c3ccnc(N[C@H]4CC[C@H](O)CC4)n3)c2c1 [Compound 89, 4-{4-[6-(2-hydroxy-ethoxy)-indazol-1-yl]-pyrimidin-2-ylamino}-cyclohexanol] |
| 208.2 to 210.2 °C | OCCOc1cccc2c1cnn2-c1ccnc(N[C@H]2CC[C@H](O)CC2)n1 [Compound 90, 4-{4-[4-(2-hydroxy-ethoxy)-indazol-1-yl]-pyrimidin-2-ylamino}-cyclohexanol] |
| > 300 °C | O[C@H]1CC[C@H](Nc2nccc(-n3ncc4c(OCC5CC5)cccc43)n2)CC1 [Compound 94, 4-[4-(4-cyclopropyl-methoxy-indazol-1-yl)-pyrimidin-2-ylamino]-cyclohexanol] |
| 170.2 to 174.4 °C | CCc1cccc2c1cnn2-c1ccnc(N[C@H]2CC[C@H](O)CC2)n1 [Compound 99, 4-[4-(4-ethylindazol-1-yl)-pyrimidin-2-yl-amino]-cyclohexanol] |
| 132 to 133 °C | CNC(=O)OCc1cccc2c1ccn2-c1ccnc(N[C@H]2CC[C@H](O)CC2)n1 [Compound 100, Methyl-carbamic acid 1-[2-(4-hydroxy-cyclo-hexylamino)-pyrimidin-4-yl]-1H-indol-4-ylmethyl ester] |
| 207 to 209 °C | N#CCc1cccc2c1ccn2-c1ccnc(N[C@H]2CC[C@H](O)CC2)n1 [Compound 101, {1-[2-(4-hydroxy-cyclo-hexylamino)-pyrimidin-4-yl]-1H-indol-4-yl}-acetonitrile] |
| 251.7 to 253 °C | O=C1c2ccccc2C(=O)N1Cc1cccc2c1ccn2-c1ccnc(N[C@H]2CC[C@H](O)CC2)n1 [Compound 106, 2-{1-[2-(4-hydroxy-cyclohexylamino)-pyrimidin-4-yl]-1H-indol-4-ylmethyl}-isoindole-1,3-dione] |
| 208 to 210 °C | CC(C)(O)c1cccc2c1ccn2-c1ccnc(N[C@H]2CC[C@H](C(=O)NCCS(C)(=O)=O)CC2)n1 [Compound 107, 4-{4-[4-(1-hydroxy-1-methylethyl)-indol-1-yl]-pyrimidin-2-yl-amino}-cyclohexane-carboxylic acid (2-methanesulfonyl-ethyl)-amide] |
| 235 to 235.5 °C | CS(=O)(=O)N[C@H]1CC[C@H](Nc2nccc(-n3ccc4c(CC#N)cccc43)n2)CC1 [Compound 110, N-{4-[4-(4-cyano-methyl-indol-1-yl)-pyrimidin-2ylamino]-cyclohexyl}-methane-sulfonamide] |
| 270 to 270.5 °C | CS(=O)(=O)N[C@H]1CC[C@H](Nc2ncc(F)c(-n3ccc4ccccc43)n2)CC1 [Compound 115, N-[4-(5-fluoro-4-indol-1-yl-pyrimidin-2-ylamino)-cyclohexyl]-methanesulfonamide] |
| 207.8 to 209.8 °C | CC(C)(O)c1cccc2c1ccn2-c1ccnc(N[C@H]2CC[C@H](C(=O)N3CCCC3)CC2)n1 [Compound 116, (4-{4-[4-(1-hydroxy-1-methylethyl)-indol-1-yl]-pyrimidin-2-yl-amino}-cyclohexyl)-pyrrolidin-1-yl-methanone] |
| 246.5 to 247 °C | COc1cccc2c1cnn2-c1ccnc(N[C@H]2CC[C@H](C(=O)N3CCCC3)CC2)n1 [Compound 125, {4-[4-(4-methoxy-indazol-1-yl)-pyrimidin-2-ylamino]-cyclohexyl}-pyrrolidin-1-ylmethanone] |
| 291.5 to 292.5 °C | COc1cccc2c1cnn2-c1ccnc(N[C@H]2CC[C@H](NS(C)(=O)=O)CC2)n1 [Compound 126, N-{4-[4-(4-methoxy-indazol-1-yl)-pyrimidin-2-ylamino]-cyclohexyl}-methanesulfonamide] |
| 242.7 to 245.5 °C | CC(=O)N[C@H]1CC[C@H](Nc2nccc(-n3ncc4c(OCCO)cccc43)n2)CC1 [Compound 130, N-(4-{4-[4-(2-hydroxy-ethoxy)-indazol-1-yl]-pyrimidin-2-ylamino}-cyclohexyl)-acetamide] |
